Measurements published in ChEMBL document CHEMBL1151384, “The Alkaloids of Thalictrum foliolosum” (J Nat Prod, 1982).
Activity calls are given as the source filed them.

What was measured:
Assay type in all cases: functional, organism-based
[1] = test system: Pseudomonas aeruginosa; experiment: Antibacterial activity against Pseudomonas aeruginosa
[2] = test system: Candida albicans; experiment: Antifungal activity against Candida albicans
[3] = test system: Sporothrix schenckii; experiment: Antifungal activity against Sporotrichum schenckii
[4] = test system: Enterococcus faecalis; experiment: Antibacterial activity against Streptococcus faecalis
[5] = test system: Staphylococcus aureus; experiment: Antibacterial activity against Staphylococcus aureus
[6] = test system: Klebsiella pneumoniae; experiment: Antibacterial activity against Klebsiella pneumoniae
[7] = test system: Cryptococcus neoformans; experiment: Antifungal activity against Cryptococcus neoformans
[8] = test system: Escherichia coli; experiment: Antibacterial activity against Escherichia coli
[9] = test system: Aspergillus fumigatus; experiment: Antifungal activity against Aspergillus fumigatus
[10] = test system: Trichophyton mentagrophytes; experiment: Antifungal activity against Trichophyton mentagrophytes

Measured: Activity

COc1ccc2cc1Oc1ccc(cc1)C[C@H]1c3cc(OC)c(OC)c(c3CCN1C)Oc1c(OC)c(OC)cc3c1[C@H](C2)N(C)CC3
inactive: all assays above

COc1ccc2cc1Oc1ccc(cc1)C[C@H]1c3cc(OC)c(OC)c(c3CCN1C)Oc1c(O)c(OC)cc3c1[C@H](C2)N(C)CC3
inactive: all assays above

COc1ccc2c(c1)-c1c(OC)c(OC)cc3c1[C@H](C2)N(C)CC3
inactive: all assays above

COc1cc(C[C@H]2c3cc(OC)c(OC)cc3CCN2C)c(Oc2cc3c(cc2OC)-c2c(OC)c(OC)cc4c2[C@H](C3)N(C)CC4)cc1OC
inactive: all assays above
